Data as given in PMC5620575 (Pharmaceutics, 2017).
In brackets after ≈: the same amount, converted by molar mass.

What was measured:
[1] = pharmacokinetics after single oral administration as microemulsion; format: in vivo; details: plasma, rabbit, 20 mg/kg, n = 3; for AUC / Cmax / Tmax: New Zealand White; for bioavailability: White New Zealand
Method: Three groups of rabbits (n = 3, each) received 20 mg/kg oral dose of each compound in the form of microemulsion through a pediatric feeding tube. After administration, serial blood samples were obtained through the IV catheter, over a period of 10 h. Plasma was obtained from blood by centrifugation, and samples were kept at −80 °C until analysis.
(§1) The pharmacokinetic parameters for each of the three compounds including half-life (t1/2), volume of distribution (Vd), elimination rate constant (k), area under the plasma concentration-time curve (AUC), total body clearance (CLT), renal clearance (CLR), and oral bioavailability (F) were determined using the general pharmacokinetic parameter calculation procedures using PKPD tools for Microsoft Excel. The obtained pharmacokinetic parameters for each compound were compared using Statistical Package of Social Sciences (SPSS) to determine the difference in the pharmacokinetic behavior for the three compounds.

[2] = biopharmaceutical classification system (BCS) class; details: assigned from lower aqueous solubility than Lzd and calculated Log P less than 1.7
Streptococcus pneumoniae = tested on: Streptococcus pneumoniae; set-up: method as in PMID 12467705, PMID 15911326, PMID 17140706, PMID 19376613, PMID 23811087; details: cited from earlier work
[3] = pharmacokinetics after single oral administration as suspension; format: in vivo; details: New Zealand White, plasma, rabbit, 20 mg/kg, n = 4
Method: The pediatric feeding tube was pushed until it reached the stomach.
Three groups of rabbits (n = 4, each) received 20 mg/kg oral dose of each compound. […] Accurately weighted amounts of each compound were dissolved/suspended in 20 mL of warm normal saline using an ultrasound water bath. […] The solutions/suspensions of the three compounds were administered orally to the rabbits using a pediatric feeding tubes. After oral administration of each compound, serial blood samples were obtained through the IV catheter, over a period of 10 h after administration. Plasma was obtained from blood by centrifugation, and samples were kept at −80 °C until analysis.
as §1

Moraxella catarrhalis = tested on: Moraxella catarrhalis; set-up: method as in PMID 12467705, PMID 15911326, PMID 17140706, PMID 19376613, PMID 23811087; details: cited from earlier work
[4] = blood to plasma partition; format: in vitro ADME; details: heparinized whole blood, rabbit blood, 37 °C, n = 3
Method: The spiked blood samples were kept at 37 °C in a shaking water bath for one hour, and plasma was then obtained by centrifugation at 37 °C. Aliquots of about 400 μL, of each plasma sample were kept frozen at −80 °C until analysis. The blood to plasma distribution ratio was determined from the ratio of the nominal total whole blood concentration and the measured plasma concentration for each compound.

[5] = plasma protein binding (ultrafiltration); format: in vitro ADME; details: for fraction unbound at 1 h, 250 μg/L / fraction unbound at 1 h, 1000 μg/L / fraction unbound at 1 h: rabbit, plasma; for fraction unbound at 1 h, 250 μg/L / fraction unbound at 1 h, 1000 μg/L: n = 3, read-out: Plasma protein binding (% bound) (converted)
Method: The remaining volume of the plasma samples obtained by centrifugation in the blood to plasma partition experiment, about 600 μL, was immediately placed in disposable ultrafiltration devices (Centrifree®, EMD Millipore Corp., Billerica, MA, USA), and centrifuged in a temperature controlled centrifuge at 37 °C. The ultrafiltrate collected in the ultrafiltration device cup was stored at −20 °C until analysis. The plasma protein binding for the three compounds in rabbit plasma was determined in triplicates at two different concentrations. The total (free + bound) plasma concentration is the concentration in the plasma samples obtained by centrifugation in the blood to plasma partition experiment, while the free (unbound) concentration is the concentration in the ultrafiltrate. The percentage bound was calculated from the free concentration and the corresponding total concentration according to Equation (1). (1) % Bound = Total concentration−Free concentration/Total concentration × 100

S. aureus Giorgio = tested on: S. aureus Giorgio; set-up: method as in ref unpublished data from Jin-Hwan Kwak at Handong Global University; details: oral suspension 1 and 4 h after infection, survival recorded for 72 h; ref unpublished data from Jin-Hwan Kwak at Handong Global University; cited from earlier work
Escherichia coli = tested on: Escherichia coli; set-up: method as in PMID 12467705, PMID 15911326, PMID 17140706, PMID 19376613, PMID 23811087; details: cited from earlier work
[6] = set-up: method as in unpublished data from our laboratory; details: rabbit urine after IV administration; ref unpublished data from our laboratory; cited from earlier work

## O=C1O[C@@H](Cn2ccnn2)CN1c1ccc(N2CCN(C(=O)C(F)(F)F)CC2)c(F)c1 [PH051]
[1]
  AUC: 1080 ± 426 ng·h/mL
  Cmax: 731 ± 412 ng/mL
  Tmax: 0.5 h
  bioavailability: 13.9%
[2]
  BCS class: Class IV
Streptococcus pneumoniae
  MIC: 1.0 µg/mL (≈ 2.26 µM)
[3]
  AUC: 369 ± 378 ng·h/mL
  Cmax: 69.7 ± 14.8 ng/mL
  Tmax: 1 h
  bioavailability: 4.73%
Moraxella catarrhalis
  MIC: 8.0 µg/mL (≈ 18.1 µM)
[4]
  blood plasma ratio at 1 h, 250 μg/L: 0.772 ± 0.022
  blood plasma ratio at 1 h, 1000 μg/L: 0.833 ± 0.015
[5]; rabbit plasma, over both concentrations
  plasma protein binding: 91%
[5]
  fraction unbound at 1 h, 250 μg/L: 0.089
  fraction unbound at 1 h, 1000 μg/L: 0.091 ± 0.0019
[5]; over both concentrations
  fraction unbound at 1 h: 0.09 to 0.1
S. aureus Giorgio
  in vivo activity against systemic mice infection: lower in vivo activity
Escherichia coli
  MIC: > 64 µg/mL
[6]
  main metabolic route: amide hydrolysis

## O=C1O[C@@H](Cn2ccnn2)CN1c1ccc(N2CCOCC2)c(F)c1 [PH027]
[1]
  AUC: 16600 ng·h/mL
  Cmax: 2870 ± 392 ng/mL
  Tmax: 2 h
  bioavailability: 72.9%
[2]
  BCS class: Class IV
Streptococcus pneumoniae
  MIC: 0.5 µg/mL (≈ 1.44 µM)
[3]
  AUC: 5010 ± 2430 ng·h/mL
  Cmax: 1620 ± 820 ng/mL
  Tmax: 1 h
  bioavailability: 22.1%
Moraxella catarrhalis
  MIC: > 16.0 µg/mL
[4]
  blood plasma ratio at 1 h, 250 μg/L: 0.96 ± 0.032
  blood plasma ratio at 1 h, 1000 μg/L: 1.01 ± 0.021
[5]
  fraction unbound at 1 h, 250 μg/L: 0.613
  fraction unbound at 1 h, 1000 μg/L: 0.622
[5]; over both concentrations
  fraction unbound at 1 h: 0.62 to 0.63
S. aureus Giorgio
  in vivo activity against systemic mice infection: lower in vivo activity
Escherichia coli
  MIC: > 64 µg/mL
[6]
  main metabolic route: metabolized mainly through oxidation
